The values that follow are results of earlier work, collected in publication PMC3222680 (PLoS ONE, 2011).

SMILES strings stand for the structures.

This series deals with α1 β GlyRs with cysteine mutations in the M2–M3 loop of the β subunit. The conditions noted are these: cysteine-substituted α1 β GlyRs (β subunit M2–M3 loop) ref 22; cited from earlier work.

For the molecule `C[N+](C)(C)CCSS(C)(=O)=O` [MTSET, 2-trimethylammoniumethylmethane thiosulfonate], the “channel function in response to MTSET treatment” value is reported as “did not change”.
